Data taken from patent publication US6747060B2, “Non-natural galanin receptor ligands” (Kemia, Inc., priority 2002, dated 2004).
“Also recorded” adds a separate entry of the source. Read-outs that look alike come from different tables or passages of the source. Non-standard residues stand in square brackets, D forms with d. Residues, ends and D or L forms follow the SMILES beside them. *: point of attachment. Fmoc = O=C(OCC1c2ccccc2-c2ccccc21)*; AMC = Cc1cc(=O)oc2cc(N*)ccc12; Cha = N[CH](CC1CCCCC1)C(=O)O

Columns and labels:
galanin receptors = assay: [125I]-galanin displacement, equilibrium binding in rat ventral hippocampal membranes; conditions: membranes from rat ventral hippocampus
Procedure: (§1) The mixtures of ligands and individual compounds were screened to displace [^125I]-galanin in equilibrium binding assay using membrane preparations from rat hippocampi, rich in galanin binding sites as described in detail previously^11. Effect of galnon on basal and forskolin-stimulated cAMP production were performed essentially as described by Valkna et al.^12 in membranes from rat ventral hippocampi.

adenylate cyclase = adenylate cyclase assay (basal and forskolin-stimulated cAMP production) in membranes from rat ventral hippocampi; assay type: biochemical
Procedure: as §1

galanin binding sites = assay: autoradiographic [125I]-galanin binding assay on rat spinal cord sections; conditions: rat spinal cord sections L4, L5; galnon at 1, 3 and 5 μM
Procedure: Rats were decapitated, the spinal cord lumbar segments L4 and L5 were dissected out, rapidly frozen, cut in a cryostat and processed for the autoradiographic ligand binding assay of Young and Kuhar^13, as described previously^14. Galnon was added at 1, 3 and 5 μM concentration. The sections were processed in a BAS3000 Bio-Imagine Analyzer (Fuji) and quantified and then exposed to Hyperfilm-Max X-ray film (Arnersham Pharmacia Biotech).

PTZ-induced seizures = PTZ-induced seizures in mice
Procedure: The experiments were performed on C57B1 male mice (weight 20-30 g). Animals to be treated with galanin, or M35 were anaesthetized with ketamine (100 mg/kg i.p.) and xylazine (15 mg/kg i.p.) and stereotaxically implanted i.c.v. with guide cannulae (0.6 mm internal diameter). Postoperative recovery was 3-5 days. Galanin, or M35 were injected into the lateral brain ventricle of freely moving mice by means of Hamilton microsyringe in the amount 0.5 nmol, in 0.5 μl, at a rate […]. Control animals were treated with saline.
Galnon was dissolved in the 50% DMSO in saline and administered i.p. in a dose of 2 mg/kg […] prior to PTZ injection (when the effect of galnon alone was studied) or […] after M35 injection (in co-administration studies). Control animals were treated with 50% DM50 in saline.
Seizures were induced by i.p. injection of PTZ (Research Biochemicals, Natick, Massachusetts) in a dose of 40 mg/kg (when studying the effects of galanin only, or galnon only) or 30 mg/kg (when studying the effect of M35 and galnon+M35). The animals were placed in individual Plexiglas cages and videotaped for 15 min after PTZ administration. Seizures were analyzed off-line by a unbiased investigator and quantified using the following scale: 0: no motor seizures; 1: staring, mouth, or facial movements; 2: head nodding or isolated twitches; 3: unilateral bilateral forelimb clonus; 4: rearing; 5: rearing and falling; 6: tonic extension of hind limbs or death. The latency of each behavioral seizure type and the highest seizure score were recorded. […] Statistical methods used: t-test (latency) and Mann-Whitney (seizure score).

[1] = system: self sustaining status epilepticus; assay: self sustaining status epilepticus (SSSE) induced by PPS in rats; assay type: in vivo
Procedure: The effects of intrahippocampal galnon administration was evaluated in rats. SSSE consisted of recurrent limbic seizures of varying intensity (stages 1-5), which lasted for 12-18 h after PPS was discontinued. Behavioral seizures were accompanied by high-frequency (13+Hz) and amplitude (1+mV) discharges with the duration of individual events between 30 s and 3 min. Between the seizures, ictal spikes with the amplitude of 0.8 mV and more and frequency of 3 Hz and less were continuously generated (spike frequency of 3 Hz and more was recognized as a seizure)^5.

human GalR1 = biological target: T1, human GalR1 (Homo sapiens, UniProt P47211); conditions: antagonists, literature reports; cited from earlier work
T1 sequence (P47211 1-349): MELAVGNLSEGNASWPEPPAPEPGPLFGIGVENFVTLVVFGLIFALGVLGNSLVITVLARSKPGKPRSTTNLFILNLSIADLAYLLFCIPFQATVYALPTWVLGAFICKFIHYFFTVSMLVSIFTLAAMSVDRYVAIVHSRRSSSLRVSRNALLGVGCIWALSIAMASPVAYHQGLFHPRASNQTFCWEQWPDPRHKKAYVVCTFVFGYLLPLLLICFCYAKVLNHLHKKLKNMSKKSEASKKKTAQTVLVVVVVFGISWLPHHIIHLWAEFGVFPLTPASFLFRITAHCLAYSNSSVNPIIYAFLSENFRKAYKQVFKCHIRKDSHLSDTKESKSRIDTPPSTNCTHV

[2] = equimolar galnon into hippocampus before M35 5 nmol, 7 min PPS
[3] = galnon 1 nmol, control rats injected with scrambled PNA

| Compound | Ki (galanin receptors) [µM] | EC50 (adenylate cyclase; basal, read-out: EC50, M of inhibition of adenylate cyclase activity (basal)) [µM] | EC50 (adenylate cyclase; forskolin stimulated, read-out: EC50, M of inhibition of adenylate cyclase activity (forskolin stimulated)) [µM] | displacement of [125I]-galanin, autoradiographic signal (galanin binding sites) | effect on seizure-facilitating effect of M35 (PTZ-induced seizures; M35 i.c.v. co-administered with galnon i.p., PTZ 30 mg/kg) | maximal seizure score (PTZ-induced seizures; PTZ 40 mg/kg i.p., 2 mg/kg i.p. 15 min prior to PTZ, scale 0-6) | anticonvulsant effect compared with galanin i.c.v. 0.5 nmol (PTZ-induced seizures; PTZ 40 mg/kg, galnon 2 mg/kg i.p.) | behavioral side effects (PTZ-induced seizures; mice, galnon 2 mg/kg i.p.) | anticonvulsant effect in the presence of GalR antagonist M35 ([1]; M35 0.5 nmol pretreatment) | duration of SSSE [1, 2] [min] | total seizure time [1, 2] [min] | effect on self-sustaining seizures ([1]; galnon 1 nmol, PNA1-pretreated animals (GalR1 down-regulated)) | reduction of duration of SSSE [1, 3] [fold] | reduction of total seizure time [1, 3] [fold] | effect on SSSE ([1]; intrahippocampal injection 10 min after the end of PPS) | SSSE duration ([1]; intrahippocampal, maximal dose 5 nmol, 30 min PPS) [min] | IC50 (human GalR1) [µM] |
| --- | --- | --- | --- | --- | --- | --- | --- | --- | --- | --- | --- | --- | --- | --- | --- | --- | --- |
| Cc1cc(=O)oc2cc(NC(=O)C(CCCCN)NC(=O)C(CC3CCCCC3)NC(=O)OCC3c4ccccc4-c4ccccc43)ccc12 (stereo not drawn) [galnon, 1-[5-amino-1-(4-methyl-2-oxo-2H-chromen-7-ylcarbamoyl)-pentylcarbamoyl]-2-cyclohexyl-ethyl-carbamic acid 9H-fluoren-9-ylmethyl ester] (Fmoc-[Cha]-Lys-{AMC}; configuration not given here) | 4.8 | 8 | 10 | significant increase in binding as compared to controls was only seen at the concentration of 5 μM | completely abolished | 1.45 | comparable to that of galanin | No obvious behavioral side effects | attenuated; also recorded: abolished | 37 ± 8 | 13 ± 4 | no effect | 7 | 9 | attenuated SSSE in a dose dependent manner | 28 ± 8 | – |
| COC(=O)C1=C[C@@H](O)[C@@H](O)[C@H](O)[C@@H]1Oc1c(Cl)c(C)c(Cl)c2c1C(=O)[C@@]1(O2)C(OC)=CC(=O)C=C1C(=O)OC [Sch 202596] | – | – | – | – | – | – | – | – | – | – | – | – | – | – | – | – | 1.4 |
| dithiipin-1,1,4,4-tetroxide | – | – | – | – | – | – | – | – | – | – | – | – | – | – | – | – | 0.17 |
